According to patent US10912818B2, “Use of microorganisms for the prevention and treatment of intestinal diseases” (Ludwig Stocker Hofpfisterei GmbH, priority 2013, dated 2021):
Entries after “also recorded” stand apart in the source; their conditions may differ.

Legend:
[1] = test system: corpus circular muscle preparations; test: Motility: contractile force of corpus circular muscle preparations in organ bath; format: cell-based, guinea pig
[2] = test system: distal colon mucosa/submucosa preparations; test: Ussing chamber: short circuit current (chloride ion secretion) across colonic mucosa/submucosa preparations; format: cell-based, guinea pig

Row | Compound | Effect of atropine pre-treatment on muscle contraction stimulated by ACH and extracts [1] | Effect of atropine applied mucosally on secretion stimulated by ACH applied serosally [2] | Effect of atropine applied on mucosal side on secretion stimulated from the mucosal side [2] | Effect of atropine applied on serosal side on secretion stimulated from the mucosal side [2] | Effect of atropine pre-treatment on secretion stimulated by ACH and extracts [2] | Effect of TTX pre-treatment on muscle contraction stimulated by ACH and extracts [1]
1 | CN1[C@@H]2CC[C@H]1C[C@@H](OC(=O)C(CO)c1ccccc1)C2 (stereo partly drawn) [atropine] | completely abrogated stimulation; also recorded: completely abolished | secretion was inhibited | only partially inhibiting ACH activity; also recorded: not mucosally | significantly inhibited; also recorded: completely abrogated secretion | completely abolished the response; also recorded: completely abrogated secretion stimulation | 
2 | NC1=N[C@H](O)[C@H]2[C@H]3O[C@]4(O)O[C@@H]([C@@H](O)[C@@]2(N1)[C@@H]4O)[C@]3(O)CO [TTX, Tetrodotoxin] |  |  |  |  |  | no significant effect
